The subject of assay [1] is pancreatic tumors of KPFMC mice. Description: Histological examination of KPFMC pancreatic tumors for invasion (intestine, biliary tract). It is filed as in vivo. As for the experimental part:
(§1) FIG. 3A depicts H&E sections of pancreatic tumors from KPFMC mice at clinical endpoint. The tumors were analyzed microscopically to identify intestinal invasion (upper panel). […] Expression values are depicted in the heat map. FIG. 3D is a bar graph showing the influence of gemcitabine treatment on the invasive behavior of tumor cells. The cells were analyzed by quantification of double positive E-cadherin and Fsp1 cells in tumor sections of mice treated with saline and gemcitabine until clinical endpoint.
(§2) Tumor cells having increased Wnt/β-catenin signaling are known to be invasive. […] This observation supports that gemcitabine monotherapy results in an invasive tumor phenotype. To confirm that gemcitabine monotherapy results in an invasive tumor phenotype, a cohort of KPFMC mice were exposed to gemcitabine monotherapy (100 mg/kg), starting at day 45 after birth. The tumors were subsequently harvested at the clinical humane endpoint. […] This observation supports that gemcitabine monotherapy results in an invasive tumor phenotype.

Assay [2] has as its system tumor cells undergoing EMT in KPFMC pancreatic tumors. The assay is described as follows: Quantification of tumor cells undergoing EMT (E-cadherin/Fsp1 double positive cells) in KPFMC tumor sections. The settings on record: gemcitabine vs saline, treated until clinical endpoint. It is filed as in vivo, mice. As for the experimental part: (§3) Expression values are depicted in the heat map. Mice were treated from day 30 after birth until day 51. […] FIG. 4C is an immunofluorescence image of a section from a saline treated KPFMC mouse pancreas co-stained with E-cadherin and Fsp1 showing high magnification view of cells that co-express both the epithelial and mesenchymal marker (left panel).
Expression values are depicted in the heat map. Color intensities indicate the fold change with M402+gemcitabine combination therapy over M402. FIG. 5B is a bar graph showing the influence of M402 treatment on the invasive behavior of tumor cells induced by gemcitabine. Tumor sections derived from mice treated with saline and gemcitabine until clinical endpoint were analyzed by quantification of cells positive for E-cadherin and Fsp1 in tumor. FIG. 5C is a bar graph showing the quantification of intact Islets of Langerhans (lower panel) from pancreatic tumors after the indicated treatments. (Means±SD are depicted; *P<0.05, NS P>0.05, Student's t test).
Tumor cells having increased Wnt/β-catenin signaling are known to be invasive. […] This observation supports that gemcitabine monotherapy results in an invasive tumor phenotype. To confirm that gemcitabine monotherapy results in an invasive tumor phenotype, a cohort of KPFMC mice were exposed to gemcitabine monotherapy (100 mg/kg), starting at day 45 after birth. […]

Assay [3] relates to Wnt/β-catenin signaling pathway. The assay is described as follows: Expression of members of the Wnt/β-catenin signaling pathway. It counts as in vivo. The settings on record: gemcitabine monotherapy.
Source text: FIGS. 6A and 6B depict the effect of gemcitabine treatment on the Wnt/β-catenin signaling pathway.
FIGS. 7A and 7B depict the effect of pretreatment with M402 followed by subsequent gemcitabine/M402 combination treatment on the Wnt/β-catenin signaling pathway.
as §2
This observation supports that M402 inhibits the gemcitabine induced invasive tumor phenotype.

Assay [4] has as its system pancreatic ductal adenocarcinoma (PDA). The settings on record: cited from earlier work.
The subject of a further assay is RTK phosphorylation. The assay is described as follows: Phospho-RTK array analysis of KPFMC pancreatic tumors. Particulars: gemcitabine treated KPFMC tumors. It is filed as in vivo, mice. As for the experimental part:
as §1, §3
Expression values are depicted in the heat map. Color intensities indicate the fold change with M402+gemcitabine combination therapy over M402. […] Tumor sections derived from mice treated with saline and gemcitabine until clinical endpoint were analyzed by quantification of cells positive for E-cadherin and Fsp1 in tumor. FIG. 5C is a bar graph showing the quantification of intact Islets of Langerhans (lower panel) from pancreatic tumors after the indicated treatments. […]

This is an account of results in patent publication US20170173070A1, “METHODS OF ADMINISTERING LMWH” (MOMENTA PHARMACEUTICALS, INC., priority 2014, published 2017).

Entries after “also recorded” stand apart in the source; their conditions may differ.

As for `Nc1ccn([C@@H]2O[C@H](CO)[C@@H](O)C2(F)F)c(=O)n1` [gemcitabine], the “biliary tract obstruction / obstructive jaundice (invasion into the biliary tree)” value in assay [1] (gemcitabine monotherapy 100 mg/kg from day 45, clinical endpoint) is “obstructive jaundice; also recorded: invasion increased”. In addition, the “intestinal invasion of pancreatic tumors” value in assay [1] (gemcitabine monotherapy 100 mg/kg from day 45 after birth, clinical endpoint, vs saline) is given as “increased invasion into the adjacent intestine; also recorded: number of mice with intestinal invasion increased”. Besides, the “tumor cells undergoing EMT (E-cadherin/Fsp1 double positive cells)” value in assay [2] is “increase in tumor cells undergoing EMT”. Moreover, the “expression of members of the Wnt/β-catenin signaling pathway” value in assay [3] was “increases expression of several members of the Wnt/β-catenin signaling pathway”. The overall survival result in assay [4] (adjuvant gemcitabine post surgical removal of a pancreatic tumor) is reported as “prolong overall survival”. Also, the survival benefit entry in assay [4] (gemcitabine monotherapy in the absence of surgery) is on record as “failed to show an extensive survival benefit”. In addition, the “RTK phosphorylation in pancreatic tumors” value in the assay on RTK phosphorylation is reported as “increased the phosphorylation of several RTKs; also recorded: increase in RTK phosphorylation”.
